Laboratory results as given in article PMC8748766, “The catalytic activity of TCPTP is auto-regulated by its intrinsically disordered tail and activated by Integrin alpha-1” (Nature Communications, 2022).

How the values were obtained:
TCPTP [1] = target: T1, TCPTP (Homo sapiens, UniProt P17706); assay: Effect of ITGA1, ITGA10 & ITGA11 peptide on TCPTP activity, pEGFR peptide-2; type: biochemical; details: pEGFR peptide-2 substrate, n = 9
T1 construct: fragments of TCPTP (residues: 1–387); His6 (N, cleaved yes); made in house; host or cells: E. coli BL21 (DE3) RIL
T1 sequence (P17706 1-387 isoform P17706-2): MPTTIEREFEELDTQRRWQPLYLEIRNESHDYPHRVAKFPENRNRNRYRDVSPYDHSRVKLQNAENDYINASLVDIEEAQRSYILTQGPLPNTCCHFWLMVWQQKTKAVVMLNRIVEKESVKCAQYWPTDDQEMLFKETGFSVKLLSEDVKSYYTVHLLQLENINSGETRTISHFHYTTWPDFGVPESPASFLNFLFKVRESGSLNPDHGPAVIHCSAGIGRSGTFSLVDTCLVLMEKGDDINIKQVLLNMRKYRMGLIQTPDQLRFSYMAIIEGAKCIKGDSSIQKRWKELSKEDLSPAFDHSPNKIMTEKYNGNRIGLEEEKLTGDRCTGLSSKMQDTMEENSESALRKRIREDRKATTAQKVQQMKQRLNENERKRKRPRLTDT
Excerpt: (§1) Polymerase chain reaction (PCR) fragments of TCPTP (residues: 1–387) TCPTPCAT (catalytic domain, residues: 1–288, 1–302 or 1–314), TCPTPTail (C-terminal tail, residues: 289–387 or 303–387) were amplified from full-length human TCPTP (TC45 isoform). TCPTP, TCPTPCAT (residues: 1–288, 1–314), and TCPTPTail (residues: 289–387) fragments were cloned into pMCSG7 including a N-terminal His6-tag using ligation-independent cloning. For all NMR experiments, the PCR fragments of TCPTP, TCPTPCAT (residues: 1–302) and TCPTPTail (residue: 303–387) were sub-cloned into pRP1B as previously described.
Relative activity of TCPTP and its variant mutant construct were measured by adding 1 nM of enzymes against the fixed concentration of substrate (100 μM of phosphopeptides), the reaction was incubated at 30 °C for 30 min in assay buffer before getting stopped as described above. […]
Supplementary Figure 8: TCPTP is distinctively activated by Integrin cytoplasmic tail with positive charge residue clusters. a Sequence alignment of the cytoplasmic tail for the human Integrin family. Positive charge residues are highlighted in blue, while negative charge residues are red; a black box highlights large clusters of positive charge residue. b Effect of ITGA1, ITGA10 & ITGA11 on the catalytic activity of TCPTP, measured against pEGFR peptide-2, derived from the EGFR’s kinase domain activation loop. […]

TCPTP [2] = details: via the cytoplasmic tail of ITGA1; cited from earlier work
TCPTPCAT = target: T2, TCPTPCAT (Homo sapiens, UniProt P17706); assay: NMR titration (2D HSQC/TROSY) binding to TCPTPCAT; details: 2D [1H,15N] TROSY, unlabeled ligand added
T2 construct: TCPTP and TCPTPCAT (residue 1–314) against 2 phosphotyrosine peptides derived from EGFR; His6 (N, cleaved yes); made in house; host or cells: E. coli BL21 (DE3) RIL
T2 sequence (P17706 1-314 isoform P17706-2): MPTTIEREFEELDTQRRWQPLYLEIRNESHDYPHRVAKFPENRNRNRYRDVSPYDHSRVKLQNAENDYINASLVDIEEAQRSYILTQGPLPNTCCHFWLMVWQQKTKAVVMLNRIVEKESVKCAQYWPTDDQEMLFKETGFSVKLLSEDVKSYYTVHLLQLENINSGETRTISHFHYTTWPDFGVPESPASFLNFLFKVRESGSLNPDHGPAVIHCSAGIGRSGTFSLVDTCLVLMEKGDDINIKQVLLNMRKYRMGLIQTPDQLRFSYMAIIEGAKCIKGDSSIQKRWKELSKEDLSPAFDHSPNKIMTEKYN
Excerpt: as §1
NMR data were collected on either Bruker NEO 600 MHz or 800 MHz spectrometers equipped with TCI HCN z-gradient cryoprobes at 298 K or 283 K. NMR measurements of TCPTP’s variant construct were recorded using (^1H,^15N)-, (^2H,^15N)-, (^1H,^15N,^13C), or (^2H,^15N,^13C)-labeled protein at a final concentration of 0.6 mM for backbone assignment or 0.1 mM for titration in NMR buffer and 90% H2O/10% D2O. The sequence-specific backbone assignments of TCPTP (residues 1–387), TCPTPCAT (residues 1–302), TCPTPTail (residues 303–387) and other variants were achieved using 3D triple resonance experiments including […], 3D HNCA, 3D HN(CO)CA, 3D HN(CO)CACB, and 3D HNCACB either as HSQC or TROSY variations. All NMR data were processed using TopSpin 4.0.5[44] and analyzed using either CARA (http://www.cara.nmr.ch) and/or CcpNMR[45].

TCPTP [3] = target: T1, TCPTP; assay: EC50 assay: TCPTP activation by ITGA1 peptides (pEGFR peptide-1 dephosphorylation); type: biochemical; details: 1 nM TCPTP, 50 μM pEGFR peptide-1, n = 3
Excerpt: as §1
To determine the EC50, synthesized ITGA1 peptides (ITGA1_FCT, ITGA1_TCT and ITGA1_TR) were mixed with TCPTP, and phosphatase activity was measured using the phospho-EGFR peptides (pEGFR peptide-1) as substrate. Lyophilized powder of all peptides was dissolved in 25 mM Hepes pH 7.4, 50 mM NaCl. For the assay, the TCPTP concentration was fixed at 1 nM and substrate phospho-peptide at 50 μM. […] The absorbance of the reaction mixture was measured at 650 nm, which was converted to the amount of phosphate produced in reaction based on the standard curve generated from the known phosphate concentration. Data obtained from the reaction was fitted using nonlinear regression mode and EC50 values were calculated based on the equation function “Log(agonist) vs. response-variable slope” using Graph Pad Prism 9.0.

TCPTP [4] = target: T1, TCPTP; assay: Kinetics of TCPTP with saturating ITGA1 peptide, pEGFR peptide-2 substrate; type: biochemical; details: TCPTP saturated with ITGA1 peptide (ITGA1_TR 1 μM; ITGA1_FCT 25 μM), mean ± SE, n = 9
Excerpt: as §1
(§2) The rate of dephosphorylation of TCPTP and TCPTPCAT (residue 1–314) against 2 phosphotyrosine peptides derived from EGFR was monitored either with or without ITGA1 peptide (ITGA1_FCT & ITGA1_TR) in assay buffer (25 mM Hepes pH 7.4, 50 mM NaCl and 1 mM DTT). Lyophilized powder of all synthetic peptides was dissolved in assay buffer without DTT (phosphopeptides, 5 mM; ITGA1 peptides, 2 mM). For the kinetic analysis, the concentration of the enzyme was fixed at 1 nM while the substrate (phosphopeptides) concentration was varied from 2.5 μM to 160 μM in a total reaction volume of 200 μl. Effect of ITGA1 peptide on TCPTP & TCPTPCAT kinetics were assessed in saturated condition by adding an excess amount of ITGA1 peptide to the reaction mixture (ITGA1_TR = 1 μM; ITGA1_FCT = 25 μM). The reaction was incubated at 30 °C for 30 min and stopped by the addition of 30 μl phosphate reagent (phosphate colorimetric assay kit; Bio Vision) following the manufacturer’s instructions. Data were normalized and fitted using a nonlinear curve, and kinetics parameters (KM and kcat) were calculated from the Michaelis-Menten equation using Graph Pad Prism 9.0. All data points in the enzyme kinetics experiment were measured in triplicate, and the experiments were repeated three times.

TCPTP [5] = target: T1, TCPTP; assay: Kinetics of TCPTP with saturating ITGA1 peptide, pEGFR peptide-1 substrate; type: biochemical; details: TCPTP saturated with ITGA1 peptide (ITGA1_TR 1 μM; ITGA1_FCT 25 μM), mean ± SE, n = 9
Excerpt: as §1, §2

[6] = target: T3, TCPTPCAT (residues 1-288) (human, UniProt P17706-2 1-288); assay: cross-linking; in trans: TCPTPCAT (1-288) 0.75 μM with TCPTP_Tail (289-387) 75 or 150 μM (1:100 and 1:200), BS3 or DSSO 0 to 1000 μM, 25 mM Hepes pH 7.4, 50 mM NaCl, room temperature 1 h; band cut from SDS-PAGE, LC-MS or LC-MSn; details: both partners purified
T3 construct: T cell protein tyrosine phosphatase (TCPTP, PTPN2), human, TC45 isoform, catalytic domain residues 1-288, cloned into pMCSG7; used for cross-linking in trans; source: E. coli BL21 (DE3) RIL, purified (His-trap, TEV cleavage, subtraction, SEC); not shown: His6, N-terminal, cleaved
T3 sequence (looked up): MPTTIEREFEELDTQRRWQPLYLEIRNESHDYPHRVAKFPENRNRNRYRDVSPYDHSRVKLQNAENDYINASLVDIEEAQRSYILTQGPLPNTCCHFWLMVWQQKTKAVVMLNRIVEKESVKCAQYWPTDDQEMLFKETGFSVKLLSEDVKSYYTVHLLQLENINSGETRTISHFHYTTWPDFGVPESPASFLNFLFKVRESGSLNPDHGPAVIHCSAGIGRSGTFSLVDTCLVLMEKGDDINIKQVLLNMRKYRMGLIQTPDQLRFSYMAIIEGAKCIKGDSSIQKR

In the case of KLGFFRSARRRREPGLDPTPKVLE [ITGA11], the TCPTP activation (TCPTP [1]) is reported as “efficiently activates TCPTP”.

In the case of “integrin α1: collagen-binding integrin α1 (ITGA1)”, the “activation of full-length TCPTP” value (TCPTP [2]) is given as “activate full-length TCPTP”.

In the case of KLGFFAHKKIPEEEKREEKLEQ [ITGA10], the TCPTP activation (TCPTP [1]) is reported as “fails to do so”.

For “KIGFFKRPLKKKMEK [ITGA1_FCT, ITGA1 full cytoplasmic tail: …]”, the “NMR titration: CSPs in (2H,15N)-labeled TCPTPCAT” value (TCPTPCAT) was “significant CSPs in the same residues”, the “activation relative to ITGA1_TCT” value (TCPTP [3]) was “functions better than ITGA1_TCT” and the kcat (TCPTP [4]; pEGFR peptide-2, pH 7.4, 30 °C 30 min) was 30.2 ± 1.2 s⁻¹. For the same molecule, the Km (TCPTP [4]; pEGFR peptide-2) was 32.8 ± 3.7 µM, the kcat/Km (TCPTP [4]; pEGFR peptide-2) was 0.9 ± 0.1 µM -1s-1 and the kcat (TCPTP [5]; pEGFR peptide-1, 1 nM enzyme, pH 7.4, 30 °C 30 min) was 26.6 ± 0.8 s⁻¹. The Km (TCPTP [5]; pEGFR peptide-1, pH 7.4, 30 °C) was 20.2 ± 1.9 µM and the kcat/Km (TCPTP [5]; pEGFR peptide-1) was 1.3 ± 0.1 µM⁻¹ s⁻¹.

B1: TCPTP_(Tail) (residues 289-387) (domain or fragment, human, UniProt P17706-2 289-387, looked up)
chain: WKELSKEDLSPAFDHSPNKIMTEKYNGNRIGLEEEKLTGDRCTGLSSKMQDTMEENSESALRKRIREDRKATTAQKVQQMKQRLNENERKRKRPRLTDT
notes: T cell protein tyrosine phosphatase (TCPTP, PTPN2), human, TC45 isoform, C-terminal tail residues 289-387, cloned into pMCSG7; used for cross-linking in trans; source: E. coli BL21 (DE3) RIL, purified (His-trap, TEV cleavage, subtraction, heat step 80 °C 10 min, SEC); not shown: His6, N-terminal, cleaved
B1: binds [6].
